{"source": "the Kinase Knowledgebase extract (Sharma et al. 2016)", "key": {"EGFR (human) [1]": {"target": "EGFR (human) (UniProt P00533)", "sequence (P00533 whole entry, looked up)": "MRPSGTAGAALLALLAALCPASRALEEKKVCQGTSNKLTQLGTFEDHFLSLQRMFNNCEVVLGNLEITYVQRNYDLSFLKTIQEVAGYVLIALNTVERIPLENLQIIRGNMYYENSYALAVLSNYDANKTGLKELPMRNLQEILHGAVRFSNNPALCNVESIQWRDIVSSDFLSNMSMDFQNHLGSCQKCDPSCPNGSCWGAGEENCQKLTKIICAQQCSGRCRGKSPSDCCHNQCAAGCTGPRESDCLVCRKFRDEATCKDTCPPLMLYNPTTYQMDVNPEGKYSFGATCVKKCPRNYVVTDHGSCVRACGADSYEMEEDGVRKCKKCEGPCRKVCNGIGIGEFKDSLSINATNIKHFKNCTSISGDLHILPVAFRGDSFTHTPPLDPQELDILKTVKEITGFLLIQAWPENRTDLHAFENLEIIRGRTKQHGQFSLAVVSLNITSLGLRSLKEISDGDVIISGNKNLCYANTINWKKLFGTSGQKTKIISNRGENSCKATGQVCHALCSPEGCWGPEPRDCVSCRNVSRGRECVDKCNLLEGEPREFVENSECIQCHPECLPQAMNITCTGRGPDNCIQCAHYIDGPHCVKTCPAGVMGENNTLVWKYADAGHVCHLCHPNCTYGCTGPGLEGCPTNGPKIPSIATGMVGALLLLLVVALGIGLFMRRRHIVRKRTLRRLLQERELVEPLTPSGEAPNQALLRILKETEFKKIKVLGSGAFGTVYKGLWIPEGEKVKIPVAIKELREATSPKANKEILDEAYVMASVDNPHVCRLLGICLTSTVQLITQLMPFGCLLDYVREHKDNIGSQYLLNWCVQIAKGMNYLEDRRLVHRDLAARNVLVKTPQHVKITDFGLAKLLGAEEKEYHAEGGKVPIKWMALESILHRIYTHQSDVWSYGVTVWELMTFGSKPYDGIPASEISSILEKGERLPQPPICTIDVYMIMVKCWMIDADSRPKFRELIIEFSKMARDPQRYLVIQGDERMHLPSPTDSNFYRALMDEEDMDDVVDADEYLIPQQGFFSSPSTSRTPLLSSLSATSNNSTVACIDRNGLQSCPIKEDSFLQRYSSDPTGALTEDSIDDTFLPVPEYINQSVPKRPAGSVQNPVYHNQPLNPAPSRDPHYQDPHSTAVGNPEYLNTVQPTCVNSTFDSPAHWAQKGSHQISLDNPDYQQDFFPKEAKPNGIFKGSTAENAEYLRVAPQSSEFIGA"}, "EGFR (human) [2]": {"target": "EGFR (human) (UniProt P00533)", "settings": "kb"}, "MAPK14 (human) [3]": {"target": "MAPK14 (human) (UniProt Q16539)", "sequence (Q16539 whole entry, looked up)": "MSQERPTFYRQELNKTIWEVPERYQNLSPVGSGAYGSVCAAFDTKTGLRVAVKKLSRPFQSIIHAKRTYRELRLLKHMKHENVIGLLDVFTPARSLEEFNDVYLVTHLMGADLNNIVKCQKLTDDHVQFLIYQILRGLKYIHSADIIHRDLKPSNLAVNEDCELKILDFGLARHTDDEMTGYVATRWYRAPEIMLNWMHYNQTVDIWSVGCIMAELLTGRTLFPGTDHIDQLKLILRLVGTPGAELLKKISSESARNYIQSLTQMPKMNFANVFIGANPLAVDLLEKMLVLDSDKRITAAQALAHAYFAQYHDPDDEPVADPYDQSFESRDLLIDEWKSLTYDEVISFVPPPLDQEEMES", "experiment": "Inhibition of MAPK14 Kinase Activity"}, "MAPK14 (human) [4]": {"target": "MAPK14 (human) (UniProt Q16539)", "experiment": "Inhibition of MAPK14 Kinase Activity", "remark": "listed apart in the source"}, "[5]": {"target": "PIK3CA (human), P42336 [Assessment of PIK3CA (Mutant) Kinase Activity in MCF-7.1 Cell Line]", "sequence (P42336 whole entry, looked up, change not shown)": "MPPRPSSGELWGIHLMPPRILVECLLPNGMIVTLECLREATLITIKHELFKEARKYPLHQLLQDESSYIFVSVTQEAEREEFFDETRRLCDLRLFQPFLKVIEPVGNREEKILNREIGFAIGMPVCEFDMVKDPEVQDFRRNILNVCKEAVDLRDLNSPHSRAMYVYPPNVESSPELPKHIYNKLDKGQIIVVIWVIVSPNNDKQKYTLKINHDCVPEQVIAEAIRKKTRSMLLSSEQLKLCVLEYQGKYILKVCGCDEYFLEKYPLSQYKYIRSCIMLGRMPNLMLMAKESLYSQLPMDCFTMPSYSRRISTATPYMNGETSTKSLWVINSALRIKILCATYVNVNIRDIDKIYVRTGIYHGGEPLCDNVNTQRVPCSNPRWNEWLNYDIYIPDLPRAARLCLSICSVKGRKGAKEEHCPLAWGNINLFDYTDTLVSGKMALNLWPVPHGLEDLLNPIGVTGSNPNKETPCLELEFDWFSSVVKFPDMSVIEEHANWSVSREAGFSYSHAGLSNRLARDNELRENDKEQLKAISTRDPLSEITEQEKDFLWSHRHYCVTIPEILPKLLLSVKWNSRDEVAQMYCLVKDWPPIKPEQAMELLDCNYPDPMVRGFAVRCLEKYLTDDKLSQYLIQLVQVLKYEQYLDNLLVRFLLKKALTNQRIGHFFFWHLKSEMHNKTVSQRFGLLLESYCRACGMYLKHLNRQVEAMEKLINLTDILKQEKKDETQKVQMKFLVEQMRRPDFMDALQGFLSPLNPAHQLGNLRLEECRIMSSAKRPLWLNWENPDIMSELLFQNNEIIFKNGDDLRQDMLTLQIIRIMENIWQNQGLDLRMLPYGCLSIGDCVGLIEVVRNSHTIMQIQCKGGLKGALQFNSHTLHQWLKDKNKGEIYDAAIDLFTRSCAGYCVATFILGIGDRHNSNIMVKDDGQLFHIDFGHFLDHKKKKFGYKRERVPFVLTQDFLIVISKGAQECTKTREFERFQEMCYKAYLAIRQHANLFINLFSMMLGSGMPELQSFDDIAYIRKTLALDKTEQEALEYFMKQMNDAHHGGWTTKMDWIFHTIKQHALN", "experiment": "Assessment of PIK3CA (Mutant) Kinase Activity in MCF-7.1 Cell Line", "settings": "mcf-7"}, "MAPK14 (human) [6]": {"target": "MAPK14 (human) (UniProt Q16539)", "experiment": "Enzyme Assay"}, "EGFR (human) [7]": {"target": "EGFR (human) (UniProt P00533)", "remark": "listed apart in the source"}, "EGFR (human) [8]": {"target": "EGFR (human) (UniProt P00533)", "settings": "hn5"}, "EGFR (human) [9]": {"target": "EGFR (human) (UniProt P00533)", "remark": "listed apart in the source"}, "EGFR (human) [10]": {"target": "EGFR (human) (UniProt P00533)", "remark": "listed apart in the source"}, "EGFR (human) [11]": {"target": "EGFR (human) (UniProt P00533)", "settings": "hn5", "remark": "listed apart in the source"}, "EGFR (human) [12]": {"target": "EGFR (human) (UniProt P00533)", "remark": "listed apart in the source"}, "MAPK14 [13]": {"target": "MAPK14 (UniProt Q16539)", "sequence (Q16539 whole entry, looked up)": "as the sequence (Q16539 whole entry, looked up) above", "experiment": "Inhibition of MAPK14 Kinase Activity (Binding Assay)"}, "MAPK14 [14]": {"target": "MAPK14 (UniProt Q16539)", "experiment": "Inhibition of MAPK14 Kinase Activity (Spectrophometric Assay)", "settings": "concentration not given here"}, "CDK2 (human) [15]": {"target": "CDK2 (human) (UniProt P24941)", "experiment": "Enzyme Assay"}, "CDK2 (human) [16]": {"target": "CDK2 (human) (UniProt P24941)", "experiment": "Enzyme Assay", "remark": "listed apart in the source"}, "EGFR (human) [17]": {"target": "EGFR (human) (UniProt P00533)", "settings": "a431"}, "EGFR (human) [18]": {"target": "EGFR (human) (UniProt P00533)", "settings": "a549"}, "EGFR (human) [19]": {"target": "EGFR (human) (UniProt P00533)", "remark": "listed apart in the source"}, "EGFR (human) [20]": {"target": "EGFR (human) (UniProt P00533)", "remark": "listed apart in the source"}, "EGFR (human) [21]": {"target": "EGFR (human) (UniProt P00533)", "settings": "a431", "remark": "listed apart in the source"}, "PIK3CG (human)": {"target": "PIK3CG (human) (UniProt P48736)", "sequence (P48736 whole entry, looked up)": "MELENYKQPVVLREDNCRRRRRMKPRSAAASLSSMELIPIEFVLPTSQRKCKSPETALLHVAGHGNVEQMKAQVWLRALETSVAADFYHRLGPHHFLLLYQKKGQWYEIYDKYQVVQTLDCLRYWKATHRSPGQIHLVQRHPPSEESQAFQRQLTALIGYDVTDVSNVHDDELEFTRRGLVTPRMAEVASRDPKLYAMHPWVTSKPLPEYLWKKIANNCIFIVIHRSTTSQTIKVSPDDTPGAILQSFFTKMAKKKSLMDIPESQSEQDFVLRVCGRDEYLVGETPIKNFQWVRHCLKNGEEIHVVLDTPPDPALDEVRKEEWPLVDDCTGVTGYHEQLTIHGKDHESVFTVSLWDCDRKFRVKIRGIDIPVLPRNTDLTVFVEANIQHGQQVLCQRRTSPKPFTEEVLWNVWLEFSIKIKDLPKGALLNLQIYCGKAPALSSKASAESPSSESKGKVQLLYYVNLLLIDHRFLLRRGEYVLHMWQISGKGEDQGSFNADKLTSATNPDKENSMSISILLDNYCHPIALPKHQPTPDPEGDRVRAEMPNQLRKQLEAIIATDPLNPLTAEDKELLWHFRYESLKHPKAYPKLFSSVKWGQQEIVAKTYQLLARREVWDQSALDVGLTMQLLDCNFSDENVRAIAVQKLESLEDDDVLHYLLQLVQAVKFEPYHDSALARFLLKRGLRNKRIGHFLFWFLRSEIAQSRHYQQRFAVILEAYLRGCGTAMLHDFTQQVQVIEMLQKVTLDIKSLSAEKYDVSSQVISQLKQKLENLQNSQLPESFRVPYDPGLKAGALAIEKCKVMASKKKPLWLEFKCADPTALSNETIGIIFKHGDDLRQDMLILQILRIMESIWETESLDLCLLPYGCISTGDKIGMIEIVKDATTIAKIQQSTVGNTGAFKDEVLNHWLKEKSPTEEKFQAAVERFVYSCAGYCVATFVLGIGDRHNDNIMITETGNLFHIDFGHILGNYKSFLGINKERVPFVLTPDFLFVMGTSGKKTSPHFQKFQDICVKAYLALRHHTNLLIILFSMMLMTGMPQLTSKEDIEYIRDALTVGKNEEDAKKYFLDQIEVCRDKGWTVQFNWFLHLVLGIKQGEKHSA", "experiment": "Inhibition of PIK3CG Kinase Activity"}, "PIK3CA (human)": {"target": "PIK3CA (human) (UniProt P42336)", "sequence (P42336 whole entry, looked up)": "as the sequence (P42336 whole entry, looked up, change not shown) above", "experiment": "Inhibition of PIK3CA Kinase Activity (FP Assay)"}, "EGFR (human) [22]": {"target": "EGFR (human) (UniProt P00533)", "remark": "listed apart in the source"}, "EGFR (human) [23]": {"target": "EGFR (human) (UniProt P00533)", "remark": "listed apart in the source"}, "EGFR (human) [24]": {"target": "EGFR (human) (UniProt P00533)", "settings": "a431", "remark": "listed apart in the source"}, "MAPK14 [25]": {"target": "MAPK14 (UniProt Q16539)", "experiment": "CSBP binding - Inhibition of RBL-1 5 Lipoxygenase Enzyme Assay"}, "MAPK14 [26]": {"target": "MAPK14 (UniProt Q16539)", "experiment": "CSBP binding - Inhibition of Prostaglandin H Synthase Type-1 Enzyme Assay"}, "MAPK14 (human) [27]": {"target": "MAPK14 (human) (UniProt Q16539)", "experiment": "Enzyme Assay", "remark": "listed apart in the source"}, "CDK2 [28]": {"target": "CDK2 (UniProt P24941)", "experiment": "Enzyme Assay"}, "CDK2 [29]": {"target": "CDK2 (UniProt P24941)", "experiment": "Enzyme Assay", "remark": "listed apart in the source"}, "EGFR (human) [30]": {"target": "EGFR (human) (UniProt P00533)", "settings": "kb", "remark": "listed apart in the source"}}}
{"smiles": "COc1cc2ncnc(Oc3ccc(Br)cc3F)c2cc1OC", "values": [{"measurement": "IC50", "setting": "EGFR (human) [1]", "result": 5.9, "unit": "µM"}]}
{"smiles": "CNC(=O)CN1CCC(Oc2cc3c(Nc4ccc(F)c(Cl)c4F)ncnc3cc2OC)CC1", "values": [{"measurement": "IC50", "setting": "EGFR (human) [2]", "result": 9, "unit": "nM"}]}
{"smiles": "CONC(=O)c1ccc(C)c(Nc2nc(NCC3CCCC(CN)C3)nc(NC3CCCCC3C)n2)c1", "note": "(stereo not drawn)", "values": [{"measurement": "IC50", "setting": "MAPK14 (human) [3]", "result": 2, "unit": "nM"}, {"measurement": "IC50", "setting": "MAPK14 (human) [4]", "result": 2, "unit": "nM"}]}
{"smiles": "Cc1nc(N)ncc1-c1nc(N2CCOCC2)c2sc(C(C)(C)O)cc2n1", "values": [{"measurement": "IC50", "setting": "[5]", "result": 280, "unit": "nM"}]}
{"smiles": "Oc1c(-c2ccc(F)cc2)c(-c2ccncc2)nn1-c1ccc(Cl)cc1", "values": [{"measurement": "activity", "setting": "MAPK14 (human) [6]; 1.0 µM", "result": 3, "unit": "%"}, {"measurement": "activity", "setting": "MAPK14 (human) [6]; 10.0 µM", "result": 0, "unit": "%"}, {"measurement": "activity", "setting": "EGFR (human) [7]; 1.0 µM", "result": 54, "unit": "%"}, {"measurement": "activity", "setting": "EGFR (human) [7]; 10.0 µM", "result": 6, "unit": "%"}]}
{"smiles": "CS(=O)(=O)CCNCc1nc(-c2ccc3ncnc(Nc4ccc(OCc5cccc(F)c5)c(Cl)c4)c3c2)cs1", "values": [{"measurement": "IC50", "setting": "EGFR (human) [8]", "result": 80, "unit": "nM"}, {"measurement": "IC50", "setting": "EGFR (human) [9]", "result": "< 100", "unit": "nM"}]}
{"smiles": "Cn1ccnc1S(=O)(=O)CCNCc1ccc(-c2ccc3ncnc(Nc4ccc(OCc5cccc(F)c5)c(Cl)c4)c3c2)o1", "values": [{"measurement": "IC50", "setting": "EGFR (human) [10]", "result": 17, "unit": "nM"}, {"measurement": "IC50", "setting": "EGFR (human) [11]", "result": 500, "unit": "nM"}]}
{"smiles": "N#Cc1cnc2cc3c(cc2c1Nc1ccc(F)c(Cl)c1)N(C(=O)/C=C/CCl)CCO3", "values": [{"measurement": "IC50", "setting": "EGFR (human) [12]", "result": 1000, "unit": "nM"}]}
{"smiles": "CONC(=O)c1ccc(C)c(Nc2nc(NCC3CCCC(CN)C3)nc(NC3CCCCC3)n2)c1", "note": "(stereo not drawn)", "values": [{"measurement": "IC50", "setting": "MAPK14 (human) [3]", "result": 2, "unit": "nM"}, {"measurement": "IC50", "setting": "MAPK14 (human) [4]", "result": 2, "unit": "nM"}]}
{"smiles": "CC12CC(C(=O)O)CC(C)(C1)C(=O)N(Cc1cccc(-n3nc(C(C)(C)C)cc3NC(=O)Nc3ccc(Cl)cc3)c1)C2=O", "note": "(stereo not drawn)", "values": [{"measurement": "IC50", "setting": "MAPK14 [13]", "result": 10, "unit": "µM"}, {"measurement": "inhibition", "setting": "MAPK14 [14]", "result": 70, "unit": "%"}]}
{"smiles": "CO[C@H]1[C@@H](OC)C[C@H](C)[C@@H](OC)C2=CC(=O)C=C(NC(=O)/C(C)=C/C=C/[C@H](OC)[C@H](OC(N)=O)/C(C)=C/[C@@H]1C)C2=O", "values": [{"measurement": "activity", "setting": "CDK2 (human) [15]; 1.0 µM", "result": 104, "unit": "%"}, {"measurement": "activity", "setting": "CDK2 (human) [15]; 10.0 µM", "result": 91, "unit": "%"}, {"measurement": "activity", "setting": "CDK2 (human) [16]; 1.0 µM", "result": 138, "unit": "%"}, {"measurement": "activity", "setting": "CDK2 (human) [16]; 10.0 µM", "result": 83, "unit": "%"}]}
{"smiles": "COc1cc(OC)c2c(=O)n(-c3cccc(C(=O)NC4CCCC4)c3)ccc2c1", "values": [{"measurement": "IC50", "setting": "EGFR (human) [17]", "result": 15.3, "unit": "µM"}, {"measurement": "IC50", "setting": "EGFR (human) [18]", "result": 18.6, "unit": "µM"}, {"measurement": "IC50", "setting": "EGFR (human) [19]", "result": 2120, "unit": "nM"}]}
{"smiles": "O=C(C=CCN1CCOCC1)Nc1ccc2ncnc(Nc3cccc(Br)c3)c2c1", "values": [{"measurement": "IC50", "setting": "EGFR (human) [20]", "result": 74, "unit": "nM"}, {"measurement": "IC50", "setting": "EGFR (human) [21]", "result": 1.89, "unit": "µM"}]}
{"smiles": "COC[C@H]1OC(=O)/C(=C/N(C)CCCN(C)C)C2=C(O)C(=O)C3=C([C@H](OC(C)=O)C[C@@]4(C)C3CC[C@@H]4O)[C@]21C", "note": "(stereo partly drawn)", "values": [{"measurement": "IC50", "setting": "PIK3CG (human)", "result": 8, "unit": "nM"}, {"measurement": "IC50", "setting": "PIK3CA (human)", "result": 6.4, "unit": "nM"}]}
{"smiles": "COCC=CC(=O)Nc1ccc2ncnc(Nc3cccc(Br)c3)c2c1", "values": [{"measurement": "IC50", "setting": "EGFR (human) [20]", "result": 1130, "unit": "nM"}, {"measurement": "IC50", "setting": "EGFR (human) [21]", "result": 8.5, "unit": "µM"}]}
{"smiles": "Cc1cc(N2CCOCC2)cc2[nH]c(-c3c(NC[C@@H](O)c4ccccc4Cl)cc[nH]c3=O)nc12", "values": [{"measurement": "IC50", "setting": "EGFR (human) [22]", "result": 1600, "unit": "nM"}]}
{"smiles": "COc1cc2c(cc1OC)Oc1ncnc(Oc3cccc(Br)c3)c1N(C)C2", "values": [{"measurement": "IC50", "setting": "EGFR (human) [23]", "result": 4.6, "unit": "µM"}]}
{"smiles": "Nc1ccc(NC(=O)Nc2cccc3c2C(=O)c2c-3n[nH]c2-c2ccc(O)cc2)cc1", "values": [{"measurement": "GI50", "setting": "EGFR (human) [24]", "result": "> 10", "unit": "µM"}]}
{"smiles": "COc1cc2ncnc(Nc3cccc(Cl)c3F)c2cc1OC1CCN(CC(=O)NCCN2CCCC2)CC1", "values": [{"measurement": "IC50", "setting": "EGFR (human) [2]", "result": 17, "unit": "nM"}]}
{"smiles": "COC(=O)Nc1ccc(Nc2ncnc3cc(OC)c(OC)cc23)cc1", "values": [{"measurement": "IC50", "setting": "EGFR (human) [1]", "result": 6.9, "unit": "µM"}]}
{"smiles": "Fc1ccc(-c2nc[nH]c2-c2ccncc2)cc1", "values": [{"measurement": "IC50", "setting": "MAPK14 [25]", "result": "> 100", "unit": "µM"}, {"measurement": "IC50", "setting": "MAPK14 [26]", "result": "> 100", "unit": "µM"}]}
{"smiles": "Cc1ccc(-c2ccnc(C(C)(C)O)n2)cc1-n1c(C)nc(OCc2ncc(F)cc2F)c(Cl)c1=O", "values": [{"measurement": "IC50", "setting": "MAPK14 (human) [6]", "result": 40, "unit": "nM"}, {"measurement": "IC50", "setting": "MAPK14 (human) [27]", "result": 566, "unit": "nM"}]}
{"smiles": "COc1ccc2c(-c3ccc(N4CCC(N)C4)cc3)nc(N)nc2c1C(C)C", "note": "(stereo not drawn)", "values": [{"measurement": "IC50", "setting": "CDK2 [28]", "result": 296, "unit": "nM"}, {"measurement": "IC50", "setting": "CDK2 [29]", "result": 2550, "unit": "nM"}]}
{"smiles": "CNC(=O)C1(N(C)Cc2cc3c(Nc4cccc(Cl)c4F)ncnc3cc2OC)CCN(C)CC1", "values": [{"measurement": "IC50", "setting": "EGFR (human) [30]", "result": 36, "unit": "nM"}]}
